# Results published in patent EP3654984B1, “TOPICAL TREATMENT FOR PREVENTING AND MITIGATING SKIN CYTOTOXICITY DUE TO THERAPY WITH TYROSINE KINASE INHIBITORS” (EUCARE S.R.L., priority 2017, dated 2019).
# “Also recorded” adds a separate entry of the source.
# Columns and labels:
# [1] = system: patients with metastatic lung adenocarcinoma with EGFR mutations; conditions: cited from earlier work
# [2] = system: Asian patients with advanced non-small-cell lung cancer harboring EGFR mutations; conditions: cited from earlier work
# [3] = system: patients with EGFR mutation-positive non-small-cell lung cancer; conditions: LUX-Lung 7, cited from earlier work
# [4] = system: patients with non-small cell lung cancer (NSCLC); conditions: afatinib 40 mg/day for 90 days, cited from earlier work
# [5] = system: skin and subcutaneous tissue; conditions: EMA marketing authorization documentation; cited from earlier work
# [6] = system: appropriate patient population; conditions: approximately; when given to an appropriate patient population; cited from earlier work
# [7] = system: patients with metastatic lung cancer; assay: Retrospective study of prophylactic dermatological treatment with polydatin cream on cutaneous toxicity of afatinib (NCI-CTCAE v3.0 grading); type: in vivo; conditions: for Incidence of skin rash, All grades (%) / Incidence of skin rash, Grade 1 (%) / Incidence of skin rash, Grade 2 (%) / Incidence of skin rash, Grade 3 (%): 1.5% polydatin cream twice a day
# Description: The main exclusion criteria were: poor patient compliance; allergy or sensitivity to polydatin; current or previous treatment with topical or oral antioxidant drugs; concomitant skin diseases.
# The retrospective study was specifically designed to evaluate a proactive management of EGFR-mediated skin toxicity, in order to minimize the possibility of having to reduce the dose or suspend the antitumor treatment.
# Patients were monitored every 7 days for the first month, and thereafter every 20 days or when needed.
# Data about severity, duration and management of cutaneous toxicity induced by TKI were analyzed in all patients treated using a descriptive statistic.
# The scale used for the classification of cutaneous toxicities induced by EGFR-targeted therapies was the classification scale of the Common Terminology Criteria for Adverse Events of the National Cancer Institute.
# skin = skin reactions during treatment with sunitinib and sorafenib; cited from earlier work
# [8] = of the 160 (afatinib) / 159 (gefitinib) patients treated
# [9] = term used for a group of adverse events
# [10] = Cutaneous rash, all patients (n = 34), afatinib 40 mg/day
structure (smiles),measurement,setting,value
"CN(C)C/C=C/C(=O)Nc1cc2c(Nc3ccc(F)c(Cl)c3)ncnc2cc1O[C@H]1CCOC1 [Afatinib, afatinib]",treatment discontinued due to treatment-related adverse events,"[1]; LUX LUNG 3, % of patients",8%
same,incidence of rash grade 1-2,[1]; LUX LUNG 3,72.9%
same,"Asthenia, All grades",[1]; LUX-Lung 3 (LL3),17.5%
same,"Asthenia, Grade 3",[1]; LUX-Lung 3 (LL3),1.3%
same,"Asthenia, Grade 4",[1]; LUX-Lung 3 (LL3),0%
same,"Diarrhea, All grades",[1]; LUX-Lung 3 (LL3),95.2%
same,"Diarrhea, Grade 3",[1]; LUX-Lung 3 (LL3),14.4%
same,"Diarrhea, Grade 4",[1]; LUX-Lung 3 (LL3),0%
same,"Dry skin, All grades",[1]; LUX-Lung 3 (LL3),29.3/NA %
same,"Dry skin, Grade 3",[1]; LUX-Lung 3 (LL3),0.4/NA %
same,"Dry skin, Grade 4",[1]; LUX-Lung 3 (LL3),0%
same,"Hitching, All grades",[1]; LUX-Lung 3 (LL3),18.8%
same,"Hitching, Grade 3",[1]; LUX-Lung 3 (LL3),0.4/0.4%
same,"Hitching, Grade 4",[1]; LUX-Lung 3 (LL3),0%
same,"Nausea, All grades",[1]; LUX-Lung 3 (LL3),17.9%
same,"Nausea, Grade 3",[1]; LUX-Lung 3 (LL3),0.9%
same,"Nausea, Grade 4",[1]; LUX-Lung 3 (LL3),0%
same,"Paronychia/periungual problems, All grades",[1]; LUX-Lung 3 (LL3),56.8%
same,"Paronychia/periungual problems, Grade 3",[1]; LUX-Lung 3 (LL3),11.4%
same,"Paronychia/periungual problems, Grade 4",[1]; LUX-Lung 3 (LL3),0%
same,"Rash/acne, All grades",[1]; LUX-Lung 3 (LL3),89.1%
same,"Rash/acne, Grade 3",[1]; LUX-Lung 3 (LL3),16.2%
same,"Rash/acne, Grade 4",[1]; LUX-Lung 3 (LL3),0.0%
same,"Reduction of appetite, All grades",[1]; LUX-Lung 3 (LL3),20.5%
same,"Reduction of appetite, Grade 3",[1]; LUX-Lung 3 (LL3),3.1%
same,"Reduction of appetite, Grade 4",[1]; LUX-Lung 3 (LL3),0%
same,"Stomatitis/mucositis, All grades",[1]; LUX-Lung 3 (LL3),72.1%
same,"Stomatitis/mucositis, Grade 3",[1]; LUX-Lung 3 (LL3),8.37%
same,"Stomatitis/mucositis, Grade 4",[1]; LUX-Lung 3 (LL3),0.4%
same,"Vomiting, All grades",[1]; LUX-Lung 3 (LL3),17.0%
same,"Vomiting, Grade 3",[1]; LUX-Lung 3 (LL3),3.1%
same,"Vomiting, Grade 4",[1]; LUX-Lung 3 (LL3),0%
same,incidence of rash grade 1-2,[2]; LUX LUNG 6,66.1%
same,rate of treatment discontinuation due to adverse events,[2]; LUX LUNG 6,2.1%
same,"Asthenia, All grades",[2]; LUX-Lung 6 (LL6),10.0%
same,"Asthenia, Grade 3",[2]; LUX-Lung 6 (LL6),0.4%
same,"Asthenia, Grade 4",[2]; LUX-Lung 6 (LL6),0%
same,"Diarrhea, All grades",[2]; LUX-Lung 6 (LL6),88.3%
same,"Diarrhea, Grade 3",[2]; LUX-Lung 6 (LL6),5.4%
same,"Diarrhea, Grade 4",[2]; LUX-Lung 6 (LL6),0%
same,"Hitching, All grades",[2]; LUX-Lung 6 (LL6),10.9%
same,"Hitching, Grade 3",[2]; LUX-Lung 6 (LL6),0.4/0.4%
same,"Hitching, Grade 4",[2]; LUX-Lung 6 (LL6),0%
same,"Nausea, All grades",[2]; LUX-Lung 6 (LL6),7.5%
same,"Nausea, Grade 3",[2]; LUX-Lung 6 (LL6),0.0%
same,"Nausea, Grade 4",[2]; LUX-Lung 6 (LL6),0%
same,"Paronychia/periungual problems, All grades",[2]; LUX-Lung 6 (LL6),32.6%
same,"Paronychia/periungual problems, Grade 3",[2]; LUX-Lung 6 (LL6),0.0%
same,"Paronychia/periungual problems, Grade 4",[2]; LUX-Lung 6 (LL6),0%
same,"Rash/acne, All grades",[2]; LUX-Lung 6 (LL6),80.8%
same,"Rash/acne, Grade 3",[2]; LUX-Lung 6 (LL6),14.2%
same,"Rash/acne, Grade 4",[2]; LUX-Lung 6 (LL6),0.4%
same,"Reduction of appetite, All grades",[2]; LUX-Lung 6 (LL6),10.0%
same,"Reduction of appetite, Grade 3",[2]; LUX-Lung 6 (LL6),1.3%
same,"Reduction of appetite, Grade 4",[2]; LUX-Lung 6 (LL6),0%
same,"Stomatitis/mucositis, All grades",[2]; LUX-Lung 6 (LL6),51.9%
same,"Stomatitis/mucositis, Grade 3",[2]; LUX-Lung 6 (LL6),5.4%
same,"Stomatitis/mucositis, Grade 4",[2]; LUX-Lung 6 (LL6),0.0%
same,"Vomiting, All grades",[2]; LUX-Lung 6 (LL6),9.6%
same,"Vomiting, Grade 3",[2]; LUX-Lung 6 (LL6),0.8%
same,"Vomiting, Grade 4",[2]; LUX-Lung 6 (LL6),0%
same,"ALT increased, All","[3]; ALT, alanine aminotransferase",9.4%
same,"AST increased, All","[3]; AST, aspartate aminotransferase",6.3%
same,"Diarrhea, All",[3]; afatinib 40 mg/day or gefitinib 250 mg/day,90.0%
same,"Alopecia, All",[3],10.6%
same,"Itching, All",[3],23.1%
same,"Nausea, All",[3],16.3%
same,"Nausea, Grade 3",[3],1.3%
same,"Reduction of appetite, All",[3],16.3%
same,"Reduction of appetite, Grade 3",[3],0.6%
same,"Vomiting, All",[3],10.6%
same,"Xerosis, All",[3],32.5%
same,grade 3 or 4 diarrhea,[3],13%
same,grade 3 or 4 rash or acne,[3],9%
same,"grade 3 or 4 diarrhea, number of patients",[3]; [8],20 patients
same,"grade 3 or 4 rash or acne, number of patients",[3]; [8],15 patients
same,"Asthenia*, All",[3]; [9],20.6%
same,"Asthenia*, Grade 3",[3]; [9],5.6%
same,"Paronychia*, All",[3]; [9],55.6%
same,"Paronychia*, Grade 3",[3]; [9],1.9%
same,"Rash/acne*, All",[3]; [9],88.8%
same,"Rash/acne*, Grade 3",[3]; [9],9.4%
same,"Stomatitis*, All",[3]; [9],64.4%
same,"Stomatitis*, Grade 3",[3]; [9],4.4%
same,incidence of rash of any grade,[4]; control arm (no treatment),75.6%
same,incidence of rash grade ≥ 2,[4]; control arm,35.6%
same,frequency of acneiform dermatitis,[5],"very common (""very common"" (frequency ≥ 1/10))"
same,frequency of dryness of the skin (xerosis),[5],"very common (""very common"" (frequency ≥ 1/10))"
same,frequency of itching,[5],"very common (""very common"" (frequency ≥ 1/10))"
same,frequency of palmoplantar erythrodysesthesia syndrome,[5],"common (""common"" (frequency ≥ 1/100 e < 1/10))"
same,frequency of skin rash,[5],"very common (""very common"" (frequency ≥ 1/10))"
"COc1cc2ncnc(Nc3ccc(F)c(Cl)c3)c2cc1OCCCN1CCOCC1 [Gefitinib, gefitinib]",response rates,[6],60-70%
C#Cc1cccc(Nc2ncnc3cc(OCCOC)c(OCCOC)cc23)c1 [erlotinib],response rates,[6],60-70%
"OC[C@H]1O[C@@H](Oc2cc(O)cc(/C=C/c3ccc(O)cc3)c2)[C@H](O)[C@@H](O)[C@@H]1O [polydatin, 3,4,5'-trihydroxystilbene-3-β-mono-d-glucoside]",patients who had to discontinue therapy due to toxicity of the antitumor drug,"[7]; 1.5% polydatin cream prophylaxis, afatinib 40 mg/day, n = 34",no patient; also recorded: no suspension of treatment
same,"Incidence of skin rash, All grades (%)",[7]; [10],41.2%
same,"Incidence of skin rash, Grade 1 (%)",[7]; [10],20.6%
same,"Incidence of skin rash, Grade 2 (%)",[7]; [10],20.6%
same,"Incidence of skin rash, Grade 3 (%)",[7]; [10],0%
same,"Incidence of skin rash, All grades (%)","[7]; Females, afatinib 40 mg/day",23.5%
same,"Incidence of skin rash, Grade 1 (%)","[7]; Females, afatinib 40 mg/day",5.9%
same,"Incidence of skin rash, Grade 2 (%)","[7]; Females, afatinib 40 mg/day",8.6%
same,"Incidence of skin rash, Grade 3 (%)","[7]; Females, afatinib 40 mg/day",0%
same,"Incidence of skin rash, All grades (%)","[7]; Males, afatinib 40 mg/day",17.6%
same,"Incidence of skin rash, Grade 1 (%)","[7]; Males, afatinib 40 mg/day",14.7%
same,"Incidence of skin rash, Grade 2 (%)","[7]; Males, afatinib 40 mg/day",12%
same,"Incidence of skin rash, Grade 3 (%)","[7]; Males, afatinib 40 mg/day",0%
same,patients who had to reduce the dose for the cutaneous toxicity of the drug,"[7]; prophylaxis with polydatin, afatinib, n = 34",no patient
same,patients who had to reduce the dose of afatinib from 40 to 30 mg/day due to intestinal toxicity (%),"[7]; prophylaxis with polydatin, n = 34",35.3%
CNC(=O)c1cc(Oc2ccc(NC(=O)Nc3ccc(Cl)c(C(F)(F)F)c3)cc2)ccn1 [sorafenib],alopecia,skin,15%
same,folliculitis,skin,38%
same,hand-foot syndrome (palmopantar erythrodysesthesia),skin,42%
same,nail alterations,skin,14%
same,pruritus,skin,36%
same,skin rash,skin,46%
same,stomatitis,skin,16%
CCN(CC)CCNC(=O)c1c(C)[nH]c(/C=C2\C(=O)Nc3ccc(F)cc32)c1C [sunitinib],alopecia,skin,15%
same,folliculitis,skin,38%
same,hand-foot syndrome (palmopantar erythrodysesthesia),skin,42%
same,nail alterations,skin,14%
same,pruritus,skin,36%
same,skin rash,skin,46%
same,stomatitis,skin,16%
